Source: ChEMBL document CHEMBL1201862, “PubChem BioAssay data set” (2004)
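Grown in 96-well plates, cells were treated for 48 hours with each compound at five concentrations. Insufficient inhibition: endpoint recorded as highest concentration tested. GI50 marks 50% less growth.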 The source made the active and inactive calls. No stated cut-off is given here; in the data, active = GI50 up to about 1.1 µM and inactive = higher.

How the values were obtained:
Experiment in all cases: growth of human tumour cells (NCI), 48 h
[1] = test system: 786-0
[2] = test system: A549
[3] = test system: EKVX
[4] = test system: HCC 2998
[5] = test system: HCT-15
[6] = test system: MDA-MB-435
[7] = test system: MOLT-4
[8] = test system: Malme-3M
[9] = test system: NCI-H226
[10] = test system: NCI/ADR-RES
[11] = test system: RPMI-8226
[12] = test system: SF-295
[13] = test system: SF-539
[14] = test system: SK-MEL-28
[15] = test system: SK-MEL-2
[16] = test system: SK-OV-3
[17] = test system: SR
[18] = test system: UACC-257
[19] = test system: UACC-62
[20] = test system: SK-MEL-5

| Structure (SMILES) | GI50 [1] | GI50 [2] | GI50 [3] | GI50 [4] | GI50 [5] | GI50 [6] | GI50 [7] | GI50 [8] | GI50 [9] | GI50 [10] | GI50 [11] | GI50 [12] | GI50 [13] | GI50 [14] | GI50 [15] | GI50 [16] | GI50 [17] | GI50 [18] | GI50 [19] | GI50 [20] |
| --- | --- | --- | --- | --- | --- | --- | --- | --- | --- | --- | --- | --- | --- | --- | --- | --- | --- | --- | --- | --- |
| Cc1nc2ccc(S(=O)(=O)Nc3ccccc3)cc2c(=O)n1NC(=O)CNc1ccccc1 | > 100 µM (inactive) | > 100 µM (inactive) | > 100 µM (inactive) | > 100 µM (inactive) | > 100 µM | > 100 µM (inactive) | > 100 µM (inactive) | > 100 µM (inactive) | > 100 µM (inactive) | > 100 µM (inactive) | > 100 µM (inactive) | > 100 µM (inactive) | > 100 µM (inactive) | > 100 µM (inactive) | > 100 µM (inactive) | > 100 µM (inactive) | > 100 µM (inactive) | > 100 µM (inactive) | > 100 µM (inactive) | – |
| COC(=O)c1cc(C#N)[nH]c1-c1ccc(Br)s1 | 14.5 µM (inactive) | 8.55 µM (inactive) | 3.97 µM (inactive) | 17.9 µM (inactive) | 13.7 µM | 13.5 µM (inactive) | 12.3 µM (inactive) | 7.14 µM (inactive) | 8.55 µM (inactive) | 10.3 µM (inactive) | 5.08 µM (inactive) | 8.41 µM (inactive) | 12.8 µM (inactive) | 11.9 µM (inactive) | 6.55 µM (inactive) | 11.6 µM (inactive) | 16.8 µM (inactive) | 9.4 µM (inactive) | 11.6 µM (inactive) | 4.11 µM (inactive) |
| O=C1/C(=C2\Sc3c(ccc(Cl)c3Cl)C2=O)Sc2c1ccc(Cl)c2Cl | > 100 µM (inactive) | > 100 µM (inactive) | > 100 µM (inactive) | > 100 µM (inactive) | > 100 µM | > 100 µM (inactive) | > 100 µM (inactive) | > 100 µM (inactive) | > 100 µM (inactive) | > 100 µM (inactive) | > 100 µM (inactive) | 33.1 µM (inactive) | > 100 µM (inactive) | > 100 µM (inactive) | > 100 µM (inactive) | – | > 100 µM (inactive) | > 100 µM (inactive) | > 100 µM (inactive) | > 100 µM (inactive) |
| CN(C)CCCc1cccc2[nH]c3c(c12)CN(C)CC3 | 92.3 µM (inactive) | > 100 µM (inactive) | > 100 µM (inactive) | > 100 µM (inactive) | 80 µM | > 100 µM (inactive) | 75 µM (inactive) | 95.9 µM (inactive) | > 100 µM (inactive) | > 100 µM (inactive) | > 100 µM (inactive) | > 100 µM (inactive) | 28.8 µM (inactive) | > 100 µM (inactive) | > 100 µM (inactive) | > 100 µM (inactive) | 27.4 µM (inactive) | 80 µM (inactive) | > 100 µM (inactive) | > 100 µM (inactive) |
| CCOc1cc(NC(C)=O)ccc1C(=O)NN1C(=O)CSC1c1ccc(O)c(OC)c1 (stereo not drawn) | > 100 µM (inactive) | 38.9 µM (inactive) | 42.7 µM (inactive) | 32.1 µM (inactive) | 40.8 µM | 46.2 µM (inactive) | 23.8 µM (inactive) | 46.8 µM (inactive) | 69.5 µM (inactive) | 30.8 µM (inactive) | 40.4 µM (inactive) | 50.8 µM (inactive) | > 100 µM (inactive) | 84.5 µM (inactive) | 49 µM (inactive) | 93.5 µM (inactive) | 50.9 µM (inactive) | 48.4 µM (inactive) | 50.4 µM (inactive) | 52.1 µM (inactive) |
